# In US20240327364A1, “THERAPEUTIC TARGETING OF GPR68 TO INDUCE FERROPTOSIS” (University Of Maryland, Baltimore, priority 2023, published 2024):
# What was measured:
# PLK2 = molecular target: T1, PLK2 (Homo sapiens, UniProt Q9NYY3); experiment: KinomeScan; type: binding; conditions: read-out: % Control
# T1 construct: purchased DiscoveRx (Fremont, CA)
# TP = molecular target: T2, TP (Homo sapiens, UniProt P21731); experiment: GPCR Profiler; type: cell-based
# T2 construct: host or cells: Chem-1 cells with Gα15
# [1] = molecular target: T3, RPS6KA5(Kin.Dom.1-N-terminal) (Homo sapiens, UniProt O75582); experiment: KinomeScan; type: binding; conditions: read-out: % Control
# T3 construct: RPS6KA5(Kin.Dom.1-N-terminal); purchased DiscoveRx (Fremont, CA)
# MAST1 = molecular target: T4, MAST1 (Homo sapiens, UniProt Q9Y2H9); experiment: KinomeScan; type: binding; conditions: read-out: % Control
# T4 construct: purchased DiscoveRx (Fremont, CA)
# sst3 = molecular target: T5, sst3 (Homo sapiens, UniProt P32745); experiment: GPCR Profiler; type: cell-based
# T5 construct: host or cells: Chem-1 cells with Gα15
# ABL1-phosphorylated = molecular target: T6, ABL1-phosphorylated (Homo sapiens, UniProt P00519); experiment: KinomeScan; type: binding; conditions: read-out: % Control
# T6 construct: purchased DiscoveRx
# SIK = molecular target: T7, SIK (Homo sapiens, UniProt P57059); experiment: KinomeScan; type: binding; conditions: read-out: % Control
# T7 construct: purchased DiscoveRx (Fremont, CA)
# PKNB(M. tuberculosis) = molecular target: T8, PKNB(M. tuberculosis) (Mycobacterium tuberculosis, UniProt P9WI81); experiment: KinomeScan; type: binding; conditions: read-out: % Control
# T8 construct: purchased DiscoveRx (Fremont, CA)
# ERK5 = molecular target: T9, ERK5 (Homo sapiens, UniProt Q13164); experiment: KinomeScan; type: binding; conditions: read-out: % Control
# T9 construct: purchased DiscoveRx (Fremont, CA)
# CDK5 = molecular target: T10, CDK5 (Homo sapiens, UniProt Q00535); experiment: KinomeScan; type: binding; conditions: read-out: % Control
# T10 construct: purchased DiscoveRx (KinomeScan service)
# P2Y2 = molecular target: T11, P2Y2 (Homo sapiens, UniProt P41231); experiment: GPCR Profiler; type: cell-based
# T11 construct: host or cells: Chem-1 cells expressing Gα15
# MARK1 = molecular target: T12, MARK1 (Homo sapiens, UniProt Q9P0L2); experiment: KinomeScan; type: binding; conditions: read-out: % Control
# T12 construct: purchased DiscoveRx (Fremont, CA)
# VRK2 = molecular target: T13, VRK2 (Homo sapiens, UniProt Q86Y07); experiment: KinomeScan; type: binding; conditions: read-out: % Control
# T13 construct: purchased DiscoveRx
# YSK1 = molecular target: T14, YSK1 (Homo sapiens, UniProt O00506); experiment: KinomeScan; type: binding; conditions: read-out: % Control
# T14 construct: purchased DiscoveRx
# PAK3 = molecular target: T15, PAK3 (Homo sapiens, UniProt O75914); experiment: KinomeScan; type: binding; conditions: read-out: % Control
# T15 construct: purchased DiscoveRx
# SRPK3 = molecular target: T16, SRPK3 (Homo sapiens, UniProt Q9UPE1); experiment: KinomeScan; type: binding; conditions: read-out: % Control
# T16 construct: purchased DiscoveRx (Fremont, CA)
# PDGFRA = molecular target: T17, PDGFRA (Homo sapiens, UniProt P16234); experiment: KinomeScan; type: binding; conditions: read-out: % Control
# T17 construct: purchased DiscoveRx (Fremont, CA)
# BMPR1B = molecular target: T18, BMPR1B (Homo sapiens, UniProt O00238); experiment: KinomeScan; type: binding; conditions: read-out: % Control
# T18 construct: purchased DiscoveRx (Fremont, CA)
# [2] = molecular target: T19, RPS6KA4(Kin.Dom.2-C-terminal) (Homo sapiens, UniProt O75676); experiment: KinomeScan; type: binding; conditions: read-out: % Control
# T19 construct: RPS6KA4(Kin.Dom.2-C-terminal); purchased DiscoveRx (Fremont, CA)
# CDK4-cyclinD3 = molecular target: T20, CDK4-cyclinD3 (Homo sapiens, UniProt P11802); experiment: KinomeScan; type: binding; conditions: read-out: % Control
# T20 construct: purchased DiscoveRx (KinomeScan service)
# SLK = molecular target: T21, SLK (Homo sapiens, UniProt Q9H2G2); experiment: KinomeScan; type: binding; conditions: read-out: % Control
# T21 construct: purchased DiscoveRx (Fremont, CA)
# FLT1 = molecular target: T22, FLT1 (Homo sapiens, UniProt P17948); experiment: KinomeScan; type: binding; conditions: read-out: % Control
# T22 construct: purchased DiscoveRx (Fremont, CA)
# CysLT1 = molecular target: T23, CysLT1 (Homo sapiens, UniProt Q9Y271); experiment: GPCR Profiler; type: cell-based
# T23 construct: host or cells: Chem-1 cells with Gα15
# PRKCE = molecular target: T24, PRKCE (Homo sapiens, UniProt Q02156); experiment: KinomeScan; type: binding; conditions: read-out: % Control
# T24 construct: purchased DiscoveRx (Fremont, CA)
# BB3 = molecular target: T25, BB3 (Homo sapiens, UniProt P32247); experiment: GPCR Profiler; type: cell-based
# T25 construct: host or cells: Chem-1 cells with promiscuous Gα15
# [3] = molecular target: T26, 336X-GFP (GPR68 truncation variant) (Homo sapiens, UniProt Q15743); experiment: SRE-luciferase assay, 336X-GFP transfected HEK293T cells; type: cell-based; conditions: OGM 10 μM
# T26 construct: while the full-length (GPR68-GFP) internalizes in response to stimulation; expressed in transfected cells; host or cells: HEK293T
# Description: 12-well plates of cells were transfected with 1 μg DNA using Lipofectamine 3000 with sre:luciferase and either the vector backbone, GFP, GPR68, GPR68-GFP, GPR4, or 336X-GFP. After 3 days, these cells were then lysed, and cell extracts were subjected to Steady-Glo luciferase assay (Promega™) according to the manufacturer's instructions. The results were normalized to cell titer, as determined using Cell Titer-Glo luminescence assay (Promega™). For some procedure, the cells were treated in serum-free medium, and were lysed on the third day.
# Loss of internalization can indicate loss of activity or loss of the ability to internalize through beta-arrestin. […] Compared to GFP controls, GPR68-GFP and 336X-GFP transfected cells had higher levels of activity. (n=3 biological replicates done in triplicate). Furthermore, the activity of the truncation variant was still inhibited by OGM. […]
# T25 sequence (P32247 whole entry): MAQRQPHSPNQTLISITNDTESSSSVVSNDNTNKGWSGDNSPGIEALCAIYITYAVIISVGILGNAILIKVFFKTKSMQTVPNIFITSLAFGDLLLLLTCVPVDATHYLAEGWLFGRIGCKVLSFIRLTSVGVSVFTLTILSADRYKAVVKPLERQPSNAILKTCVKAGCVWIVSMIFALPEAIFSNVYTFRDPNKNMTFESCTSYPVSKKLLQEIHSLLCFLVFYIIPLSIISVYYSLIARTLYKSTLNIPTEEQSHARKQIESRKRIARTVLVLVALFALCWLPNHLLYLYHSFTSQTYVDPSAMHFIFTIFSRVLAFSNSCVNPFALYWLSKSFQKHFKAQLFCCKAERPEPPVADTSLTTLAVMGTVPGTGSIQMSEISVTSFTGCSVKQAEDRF
# T2 sequence (P21731 whole entry): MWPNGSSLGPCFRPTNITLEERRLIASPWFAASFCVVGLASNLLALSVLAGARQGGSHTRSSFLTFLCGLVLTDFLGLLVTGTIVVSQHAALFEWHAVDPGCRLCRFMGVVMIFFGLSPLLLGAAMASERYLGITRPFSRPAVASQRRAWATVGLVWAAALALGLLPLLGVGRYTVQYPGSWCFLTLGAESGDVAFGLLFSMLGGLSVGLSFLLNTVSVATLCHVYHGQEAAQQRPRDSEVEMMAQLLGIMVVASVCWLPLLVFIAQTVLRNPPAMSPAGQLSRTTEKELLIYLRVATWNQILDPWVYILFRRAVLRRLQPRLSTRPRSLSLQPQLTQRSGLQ
# T11 sequence (P41231 whole entry, species assumed): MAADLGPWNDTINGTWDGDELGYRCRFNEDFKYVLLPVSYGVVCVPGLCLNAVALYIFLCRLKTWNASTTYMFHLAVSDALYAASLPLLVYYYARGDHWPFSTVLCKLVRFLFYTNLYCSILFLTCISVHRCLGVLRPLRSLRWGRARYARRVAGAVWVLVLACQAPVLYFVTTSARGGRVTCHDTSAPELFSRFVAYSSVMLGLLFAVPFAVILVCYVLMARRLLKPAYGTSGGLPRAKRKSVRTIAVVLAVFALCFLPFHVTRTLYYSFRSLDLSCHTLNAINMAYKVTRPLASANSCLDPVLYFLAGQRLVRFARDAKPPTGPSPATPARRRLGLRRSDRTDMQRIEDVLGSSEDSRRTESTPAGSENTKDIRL
# T23 sequence (Q9Y271 whole entry, species assumed): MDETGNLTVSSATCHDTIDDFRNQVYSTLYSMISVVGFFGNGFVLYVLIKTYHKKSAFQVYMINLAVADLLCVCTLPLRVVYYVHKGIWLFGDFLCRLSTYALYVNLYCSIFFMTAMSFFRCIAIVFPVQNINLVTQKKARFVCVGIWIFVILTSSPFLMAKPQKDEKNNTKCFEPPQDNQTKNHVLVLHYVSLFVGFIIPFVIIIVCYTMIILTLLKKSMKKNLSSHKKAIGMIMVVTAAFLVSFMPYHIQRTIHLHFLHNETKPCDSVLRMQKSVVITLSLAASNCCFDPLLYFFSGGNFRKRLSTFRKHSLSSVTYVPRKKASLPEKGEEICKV
# T5 sequence (P32745 whole entry, species assumed): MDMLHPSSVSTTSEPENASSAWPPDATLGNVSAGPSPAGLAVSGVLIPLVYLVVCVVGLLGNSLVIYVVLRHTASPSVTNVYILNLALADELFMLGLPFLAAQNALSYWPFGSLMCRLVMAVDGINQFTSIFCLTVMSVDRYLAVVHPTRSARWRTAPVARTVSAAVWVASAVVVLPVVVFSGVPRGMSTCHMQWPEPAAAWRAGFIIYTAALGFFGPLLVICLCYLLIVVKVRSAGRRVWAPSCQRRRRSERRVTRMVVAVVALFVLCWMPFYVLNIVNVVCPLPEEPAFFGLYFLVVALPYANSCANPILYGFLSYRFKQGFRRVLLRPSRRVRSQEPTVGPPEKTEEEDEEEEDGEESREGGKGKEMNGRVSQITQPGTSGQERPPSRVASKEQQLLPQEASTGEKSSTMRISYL
# T12 sequence (Q9P0L2 whole entry): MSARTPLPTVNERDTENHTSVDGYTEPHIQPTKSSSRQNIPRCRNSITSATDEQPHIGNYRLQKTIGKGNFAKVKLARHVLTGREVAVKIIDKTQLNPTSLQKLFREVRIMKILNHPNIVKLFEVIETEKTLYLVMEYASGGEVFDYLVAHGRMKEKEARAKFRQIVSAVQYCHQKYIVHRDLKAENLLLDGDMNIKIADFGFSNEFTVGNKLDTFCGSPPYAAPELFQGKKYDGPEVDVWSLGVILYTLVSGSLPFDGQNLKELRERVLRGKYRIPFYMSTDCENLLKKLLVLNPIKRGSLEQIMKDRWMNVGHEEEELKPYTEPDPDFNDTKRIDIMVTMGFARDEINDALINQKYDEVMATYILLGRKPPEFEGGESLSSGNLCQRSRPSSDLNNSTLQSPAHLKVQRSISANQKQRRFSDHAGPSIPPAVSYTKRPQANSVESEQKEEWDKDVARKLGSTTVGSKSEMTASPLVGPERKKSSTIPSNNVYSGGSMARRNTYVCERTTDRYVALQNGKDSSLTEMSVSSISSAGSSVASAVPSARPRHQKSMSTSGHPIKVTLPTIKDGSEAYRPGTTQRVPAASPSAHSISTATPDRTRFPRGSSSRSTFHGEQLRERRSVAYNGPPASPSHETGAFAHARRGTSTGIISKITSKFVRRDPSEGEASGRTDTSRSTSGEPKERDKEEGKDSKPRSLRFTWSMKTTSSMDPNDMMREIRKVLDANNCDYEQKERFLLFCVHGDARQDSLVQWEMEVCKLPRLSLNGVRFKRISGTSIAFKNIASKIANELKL
# T3 sequence (O75582 49-318 limits assumed): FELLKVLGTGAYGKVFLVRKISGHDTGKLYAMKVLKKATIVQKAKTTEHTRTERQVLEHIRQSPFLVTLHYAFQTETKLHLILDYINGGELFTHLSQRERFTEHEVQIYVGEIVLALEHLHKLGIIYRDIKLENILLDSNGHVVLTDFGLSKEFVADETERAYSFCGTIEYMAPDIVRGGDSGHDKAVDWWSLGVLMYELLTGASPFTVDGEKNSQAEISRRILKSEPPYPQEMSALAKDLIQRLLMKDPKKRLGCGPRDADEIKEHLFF
# T21 sequence (Q9H2G2 whole entry): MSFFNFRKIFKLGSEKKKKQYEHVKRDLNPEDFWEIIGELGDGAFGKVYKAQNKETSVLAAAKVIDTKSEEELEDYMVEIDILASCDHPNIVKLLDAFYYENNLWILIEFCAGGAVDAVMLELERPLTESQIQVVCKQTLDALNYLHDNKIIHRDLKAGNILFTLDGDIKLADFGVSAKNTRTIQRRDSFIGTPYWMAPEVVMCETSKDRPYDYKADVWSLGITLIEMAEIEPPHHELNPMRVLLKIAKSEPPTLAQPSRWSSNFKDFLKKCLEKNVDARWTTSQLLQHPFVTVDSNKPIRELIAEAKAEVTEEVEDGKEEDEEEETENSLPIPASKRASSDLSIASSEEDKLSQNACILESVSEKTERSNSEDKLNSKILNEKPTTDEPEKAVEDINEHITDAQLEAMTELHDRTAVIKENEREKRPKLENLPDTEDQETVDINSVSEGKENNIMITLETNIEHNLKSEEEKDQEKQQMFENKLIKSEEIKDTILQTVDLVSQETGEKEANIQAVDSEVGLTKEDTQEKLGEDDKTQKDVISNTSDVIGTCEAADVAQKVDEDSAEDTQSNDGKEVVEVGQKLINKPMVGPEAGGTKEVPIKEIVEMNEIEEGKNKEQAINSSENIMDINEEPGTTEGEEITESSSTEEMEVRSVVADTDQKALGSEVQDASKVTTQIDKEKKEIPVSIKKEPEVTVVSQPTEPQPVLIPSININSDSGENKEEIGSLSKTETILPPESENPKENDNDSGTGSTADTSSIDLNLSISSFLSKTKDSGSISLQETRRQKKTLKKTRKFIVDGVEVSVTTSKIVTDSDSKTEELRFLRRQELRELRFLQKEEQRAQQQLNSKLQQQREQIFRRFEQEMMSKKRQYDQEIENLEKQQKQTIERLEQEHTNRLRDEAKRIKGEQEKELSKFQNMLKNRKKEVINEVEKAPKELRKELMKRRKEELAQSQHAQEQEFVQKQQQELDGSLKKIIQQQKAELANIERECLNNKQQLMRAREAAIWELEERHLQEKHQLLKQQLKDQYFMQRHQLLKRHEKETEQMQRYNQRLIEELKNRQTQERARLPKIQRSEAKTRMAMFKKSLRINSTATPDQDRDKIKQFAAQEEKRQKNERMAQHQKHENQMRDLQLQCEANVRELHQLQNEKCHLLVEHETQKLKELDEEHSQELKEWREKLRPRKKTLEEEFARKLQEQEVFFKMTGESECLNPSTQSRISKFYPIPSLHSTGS
# T1 sequence (Q9NYY3 whole entry): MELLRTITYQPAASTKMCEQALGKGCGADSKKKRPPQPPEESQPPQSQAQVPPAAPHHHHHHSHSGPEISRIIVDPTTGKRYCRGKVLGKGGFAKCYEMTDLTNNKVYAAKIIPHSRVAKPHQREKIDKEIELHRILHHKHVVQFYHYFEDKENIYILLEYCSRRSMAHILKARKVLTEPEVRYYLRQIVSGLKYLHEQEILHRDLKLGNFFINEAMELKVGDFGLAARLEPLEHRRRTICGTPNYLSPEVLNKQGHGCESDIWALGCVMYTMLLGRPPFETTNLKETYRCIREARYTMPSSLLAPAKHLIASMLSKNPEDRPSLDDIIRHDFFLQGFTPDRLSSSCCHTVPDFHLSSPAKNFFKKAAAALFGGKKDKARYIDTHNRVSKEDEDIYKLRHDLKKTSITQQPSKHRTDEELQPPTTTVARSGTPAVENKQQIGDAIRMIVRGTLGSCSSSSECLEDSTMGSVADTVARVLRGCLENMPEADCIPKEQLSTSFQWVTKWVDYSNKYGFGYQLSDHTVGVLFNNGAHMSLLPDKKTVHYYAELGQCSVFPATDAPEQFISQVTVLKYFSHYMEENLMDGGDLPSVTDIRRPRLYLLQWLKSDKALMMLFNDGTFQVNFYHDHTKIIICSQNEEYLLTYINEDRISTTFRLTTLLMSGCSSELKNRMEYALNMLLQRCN
compound,measurement,setting,value
"CCc1ccc2c(c1)C1(NN=C(c3cccc4ccccc34)S1)C(=O)N2 (stereo not shown) [OGM1, 5-ethyl-5′-naphthalen-1-ylspiro[1H-indole-3,2′-3H-1,3,4-thiadiazole]-2-one]",remaining binding at 10 µM,PLK2,100%
same,Antagonism,TP; 10 uM,8.1
same,Agonism,TP; 12.5 uM,0.2
same,remaining binding at 10 µM,[1],100%
same,remaining binding at 10 µM,MAST1,58%
same,Antagonism,sst3; 10 uM,0
same,Agonism,sst3; 12.5 uM,0
same,remaining binding at 10 µM,ABL1-phosphorylated,93%
same,remaining binding at 10 µM,SIK,95%
same,remaining binding at 10 µM,PKNB(M. tuberculosis),79%
same,remaining binding at 10 µM,ERK5,89%
same,remaining binding at 10 µM,CDK5,100%
same,Antagonism,P2Y2; 10 uM,−9
same,Agonism,P2Y2; 12.5 uM,0.1
same,remaining binding at 10 µM,MARK1,100%
same,remaining binding at 10 µM,VRK2,93%
same,remaining binding at 10 µM,YSK1,80%
same,remaining binding at 10 µM,PAK3,93%
same,remaining binding at 10 µM,SRPK3,100%
same,remaining binding at 10 µM,PDGFRA,100%
same,remaining binding at 10 µM,BMPR1B,81%
same,remaining binding at 10 µM,[2],74%
same,remaining binding at 10 µM,CDK4-cyclinD3,76%
same,remaining binding at 10 µM,SLK,90%
same,remaining binding at 10 µM,FLT1,100%
same,Antagonism,CysLT1; 10 uM,−2.4
same,Agonism,CysLT1; 12.5 uM,0.8
same,remaining binding at 10 µM,PRKCE,68%
same,Antagonism,BB3; 10 uM,−0.7
same,Agonism,BB3; 12.5 uM,1.3
CCc1ccc2c(c1)C1(NN=C(c3ccccc3)S1)C(=O)N2 (stereo not shown) [OGM2],SRE-luciferase activity,[3],reduced the level of luciferase activity
